Source: PubChem BioAssay AID2060493 (Molecular Pharmacology Branch, DTP, NCI, 2025)

System: 616215-338-R-J1-PDC tumor spheroids, viability
Experiment: Anticancer human tumor 616215-338-R-J1-PDC patient-derived colon adenocarcinoma cell line growth inhibition [GQUAD]
Details: spheroids with HUVEC and MSC; for IC50: curve of first compound; for viability, T/C: stronger effect = lower value
Procedure, shortened: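 Tumor cells were grown as complex spheroids with HUVEC endothelial cells and mesenchymal stem cells as stroma. G-quadruplex stabilizers were combined with targeted agents over half-log dilutions from near the clinical Cmax, or from 10 microM.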

[1] = second compound 0.0316 µM, first compound 0.0316 µM
[2] = second compound 0.0316 µM, first compound 0.316 µM
[3] = second compound 0.1 µM, first compound 0.0316 µM
[4] = second compound 0.1 µM, first compound 0.316 µM
[5] = second compound 0.316 µM, first compound 0.0316 µM
[6] = second compound 0.316 µM, first compound 0.316 µM
[7] = second compound 1 µM, first compound 0.0316 µM
[8] = second compound 1 µM, first compound 0.316 µM
[9] = second compound 3.16 µM, first compound 0.0316 µM
[10] = second compound 3.16 µM, first compound 0.316 µM
[11] = second compound 10 µM, first compound 0.0316 µM
[12] = second compound 10 µM, first compound 0.316 µM
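Further: spheroids exposed to agents for 7 days before readout.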
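Wherever viability, T/C is given: percent viability relative to DMSO vehicle control wells taken as 100%.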

In the case of `CC(=O)O[C@H]1C(=O)[C@@]2(C)[C@H]([C@H](OC(=O)c3ccccc3)[C@]3(O)C[C@H](OC(=O)[C@H](O)[C@@H](NC(=O)c4ccccc4)c4ccccc4)C(C)=C1C3(C)C)[C@]1(OC(C)=O)CO[C@@H]1C[C@@H]2O` + CN(C)c1ccc(Nc2c3ccc(NC(=O)CCN4CCCC4)cc3nc3cc(NC(=O)CCN4CCCC4)ccc23)cc1, the IC50 (second compound 0.0316 µM) is reported as < 31.6 nM, the IC50 (second compound 0.1 µM) is reported as < 31.6 nM and the IC50 (second compound 0.316 µM) is reported as < 31.6 nM. For the same molecule, the IC50 (second compound 1 µM) was < 31.6 nM, the IC50 (second compound 3.16 µM) was < 31.6 nM and the IC50 (second compound 10 µM) was < 31.6 nM. The viability, T/C [1] was 28.9%, the viability, T/C (second compound 0.0316 µM, first compound 0.1 µM) was 20.4% and the viability, T/C [2] was 18.1%. The viability, T/C (second compound 0.0316 µM, first compound 1 µM) was 14.6%, the viability, T/C (second compound 0.0316 µM, first compound 3.16 µM) was 12.1% and the viability, T/C (second compound 0.0316 µM, first compound 10 µM) was 13.2%. For the same molecule, the viability, T/C [3] was 24.7%, the viability, T/C (second compound 0.1 µM, first compound 0.1 µM) was 19.5% and the viability, T/C [4] was 16.4%. The viability, T/C (second compound 0.1 µM, first compound 1 µM) was 14%, the viability, T/C (second compound 0.1 µM, first compound 3.16 µM) was 12.8% and the viability, T/C (second compound 0.1 µM, first compound 10 µM) was 11.4%. For the same molecule, the viability, T/C [5] was 41.4%, the viability, T/C (second compound 0.316 µM, first compound 0.1 µM) was 22.1% and the viability, T/C [6] was 14.8%. It also gave a viability, T/C (second compound 0.316 µM, first compound 1 µM) of 10.8%, a viability, T/C (second compound 0.316 µM, first compound 3.16 µM) of 12.3% and a viability, T/C (second compound 0.316 µM, first compound 10 µM) of 14.2%. The viability, T/C [7] was 34%, the viability, T/C (second compound 1 µM, first compound 0.1 µM) was 15% and the viability, T/C [8] was 16%. For the same molecule, the viability, T/C (second compound 1 µM, first compound 1 µM) was 8.58%, the viability, T/C (second compound 1 µM, first compound 3.16 µM) was 16.5% and the viability, T/C (second compound 1 µM, first compound 10 µM) was 12.9%. The viability, T/C [9] was 28.6%, the viability, T/C (second compound 3.16 µM, first compound 0.1 µM) was 14.3% and the viability, T/C [10] was 15.3%. It also gave a viability, T/C (second compound 3.16 µM, first compound 1 µM) of 11.1%, a viability, T/C (second compound 3.16 µM, first compound 3.16 µM) of 11.2% and a viability, T/C (second compound 3.16 µM, first compound 10 µM) of 11.8%. For the same molecule, the viability, T/C [11] was 26.2%, the viability, T/C (second compound 10 µM, first compound 0.1 µM) was 16.4% and the viability, T/C [12] was 17.4%. It also gave a viability, T/C (second compound 10 µM, first compound 1 µM) of 12.2%, a viability, T/C (second compound 10 µM, first compound 3.16 µM) of 9.14% and a viability, T/C (second compound 10 µM, first compound 10 µM) of 11.9%.
Molecule `CC[C@@]1(O)C(=O)OCc2c1cc1n(c2=O)Cc2cc3c(CN(C)C)c(O)ccc3nc2-1` + CN(C)c1ccc(Nc2c3ccc(NC(=O)CCN4CCCC4)cc3nc3cc(NC(=O)CCN4CCCC4)ccc23)cc1 has an IC50 (second compound 0.0316 µM) of 282 nM, an IC50 (second compound 0.1 µM) of 251 nM and an IC50 (second compound 0.316 µM) of 230 nM. It also gave an IC50 (second compound 1 µM) of 272 nM, an IC50 (second compound 3.16 µM) of 263 nM and an IC50 (second compound 10 µM) of 183 nM. It also gave a viability, T/C (second compound 0.0316 µM, first compound 0.000999 µM) of 97.5%, a viability, T/C (second compound 0.0316 µM, first compound 0.00316 µM) of 98.9% and a viability, T/C (second compound 0.0316 µM, first compound 0.00999 µM) of 98%. It also gave a viability, T/C [1] of 105%, a viability, T/C (second compound 0.0316 µM, first compound 0.0999 µM) of 87.9% and a viability, T/C [2] of 45.9%. For the same molecule, the viability, T/C (second compound 0.1 µM, first compound 0.000999 µM) was 93.5%, the viability, T/C (second compound 0.1 µM, first compound 0.00316 µM) was 101% and the viability, T/C (second compound 0.1 µM, first compound 0.00999 µM) was 101%. For the same molecule, the viability, T/C [3] was 101%, the viability, T/C (second compound 0.1 µM, first compound 0.0999 µM) was 87.2% and the viability, T/C [4] was 40.5%. For the same molecule, the viability, T/C (second compound 0.316 µM, first compound 0.000999 µM) was 113%, the viability, T/C (second compound 0.316 µM, first compound 0.00316 µM) was 94.5% and the viability, T/C (second compound 0.316 µM, first compound 0.00999 µM) was 98.5%. The viability, T/C [5] was 105%, the viability, T/C (second compound 0.316 µM, first compound 0.0999 µM) was 85.2% and the viability, T/C [6] was 36.4%. It also gave a viability, T/C (second compound 1 µM, first compound 0.000999 µM) of 105%, a viability, T/C (second compound 1 µM, first compound 0.00316 µM) of 100% and a viability, T/C (second compound 1 µM, first compound 0.00999 µM) of 96.2%. It also gave a viability, T/C [7] of 101%, a viability, T/C (second compound 1 µM, first compound 0.0999 µM) of 87.4% and a viability, T/C [8] of 44.1%. It also gave a viability, T/C (second compound 3.16 µM, first compound 0.000999 µM) of 97.9%, a viability, T/C (second compound 3.16 µM, first compound 0.00316 µM) of 86.8% and a viability, T/C (second compound 3.16 µM, first compound 0.00999 µM) of 96.7%. It also gave a viability, T/C [9] of 95.2%, a viability, T/C (second compound 3.16 µM, first compound 0.0999 µM) of 93.1% and a viability, T/C [10] of 41.8%. It also gave a viability, T/C (second compound 10 µM, first compound 0.000999 µM) of 90.2%, a viability, T/C (second compound 10 µM, first compound 0.00316 µM) of 91% and a viability, T/C (second compound 10 µM, first compound 0.00999 µM) of 95.8%. For the same molecule, the viability, T/C [11] was 85.3%, the viability, T/C (second compound 10 µM, first compound 0.0999 µM) was 74.5% and the viability, T/C [12] was 28.1%.
